The source of these data is PMC10892093 (Pharmaceutics, 2024).

Read-outs that look alike come from different tables or passages of the source. A value given as a limit tells only on which side of the number the result lay.

Data set [1] relates to human kidney microsomes (HKM). The data set can be described thus: Inhibition of R- and S-oxazepam glucuronidation in human kidney microsomes. The procedure:
(§1) A Waters Corp BEH C18 Acquity UPLC column (1.7 µM, 2.1 × 100 mm) was used at a constant temperature of 40 °C for chromatographic separation. An elution gradient was used for 6.5 min with mobile phases A (5 mM ammonium formate) and B (100% methanol) under the following conditions: 90% A for 0.5 min, followed by a linear gradient for 3 min to 60% A, 1 min at 5% A, and re-equilibration for 1 min at 90% A.
(§2) The reaction was initiated by the addition of 4 mM UDPGA as the cofactor and incubated for 2 h at 37 °C. The reaction was terminated by adding 30 µL of an ice-cold stop solution (acetonitrile/methanol; 1:1). The reaction mixtures were centrifuged at 17,000× g for 30 min at 4 °C, and the supernatant was transferred to UPLC sample glass vial for analysis using UPLC–MS/MS (described above). […] As a positive control for inhibition assays, ketoconazole (10 μM and 100 µM) was used as a potential inhibitor of the UGTs 1A9, 2B7, and 2B15. Reactions containing only the cannabinoid vehicle (3% methanol) and without any inhibitor (cannabinoids) were used as a baseline reaction for 100% enzyme activity, while a reaction without UDPGA was used as a negative control. All experiments were performed in three independent experiments.
(§3) Determination of IC50 and Ki Values. […] The nonspecific binding constants (fu,inc) for cannabinoids in HEK293 microsomes, HLM, and HKM were previously determined and used to calculate the inhibition by unbound (‘free’) cannabinoid in each reaction. A nonlinear regression analysis and the following equation were used to calculate the IC50 values:(1) y = Bottom +Top − Bottom / 1 + 10^x − LogIC50A where ‘Bottom’ is the maximum observed inhibition (lowest percent activity) and ‘Top’ is the minimum observed inhibition (highest percent activity) for a given cannabinoid.

For data set [2], the target named is T1, UGT2B7 (Homo sapiens, UniProt P16662).
T1 construct: expressed in transfected cells; microsomal fraction
T1 sequence (P16662 24-529): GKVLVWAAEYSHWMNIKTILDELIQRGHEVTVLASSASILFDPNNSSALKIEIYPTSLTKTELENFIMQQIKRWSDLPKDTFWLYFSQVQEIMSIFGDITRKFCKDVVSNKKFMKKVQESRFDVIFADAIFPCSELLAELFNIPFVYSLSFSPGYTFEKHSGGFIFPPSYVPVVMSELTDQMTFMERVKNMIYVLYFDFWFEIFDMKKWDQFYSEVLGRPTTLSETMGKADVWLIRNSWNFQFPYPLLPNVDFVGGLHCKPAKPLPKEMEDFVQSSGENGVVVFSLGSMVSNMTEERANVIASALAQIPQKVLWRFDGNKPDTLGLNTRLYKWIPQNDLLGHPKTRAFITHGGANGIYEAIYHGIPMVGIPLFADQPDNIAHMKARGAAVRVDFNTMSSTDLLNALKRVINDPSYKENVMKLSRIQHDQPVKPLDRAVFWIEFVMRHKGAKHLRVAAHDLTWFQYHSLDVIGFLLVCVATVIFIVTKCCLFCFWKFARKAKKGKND
Put plainly: Inhibition of R- and S-oxazepam glucuronidation in rUGT2B7 microsomes (UGT-overexpressing HEK293). The class given is biochemical. The conditions noted are these: for inhibition at 2 h, 100 µM: human, pH 7.4, rUGT2B7 microsomes; for IC50: rUGT2B7. As to the method:
Human embryonic kidney cells (HEK293) stably overexpressing the single UGTs 1A9, 2B7, and 2B15 have been previously established and described. Cells were grown in DMEM supplemented with 350 μg/mL of geneticin and 10% FBS and harvested in PBS. Microsomal fractions of UGT-overexpressing cell lines were prepared by differential centrifugation using previously described protocols. Briefly, cell homogenates were prepared by resuspending pelleted cells in PBS, followed by five rounds of freeze–thaw cycles prior to homogenization. Recombinant microsomes (rUGTs) were prepared by centrifuging the cell homogenate at a low speed (9000× g for 30 min) followed by ultracentrifugation (34,000× g for 60 min), with the total protein subsequently determined using a BCA assay. Recombinant microsomes (UGT1A9 and 2B7) and homogenates (UGT2B15) were used for inhibition studies.
as §1, §2, §3

Data set [3] deals with UGTs (S-oxazepam glucuronidation in HKM). Put plainly: Inhibition of R- and S-oxazepam glucuronidation in human kidney microsomes. Particulars: human, human kidney microsomes. As to the method:
as §1, §2, §3

In data set [4] the test system is UGTs (R-oxazepam glucuronidation in HKM). The data set is described as above. Particulars: human, human kidney microsomes. As to the method:
as §1, §2, §3

For data set [5] the following is noted: cited from earlier work.
Data set [6] relates to UGTs (S-oxazepam glucuronidation in HLM). The data set can be described thus: Inhibition of R- and S-oxazepam glucuronidation in human liver microsomes. The conditions noted are these: human, human liver microsomes. The procedure:
as §1, §2, §3
(§4) The inhibition constant (Ki) was generated from the in vitro IC50 values assuming competitive inhibition (based on the Cheng–Prusoff equation; [49]). Considering that there have been no reports of the irreversible inhibition (e.g., mechanism-based inhibition) of UGTs, competitive inhibition was assumed as the worst-case scenario (highest inhibition) among all feasible types of reversible inhibitions. The substrate concentration used in the incubations was below the reported Km; therefore, the Ki values were predicted using Equation (2):(2) Ki=IC50/S/Km+1 where Km is Michaelis–Menten constant for the substrate, S is the substrate concentration, and IC50 is half-maximal inhibitory concentration.

Data set [7] relates to UGTs (R-oxazepam glucuronidation in HLM). The description is as above. The conditions noted are these: human, human liver microsomes. The procedure: as §1, §2, §3, §4
Setting [8] is: read-out: IC50, R-Oxazepam Glucuronide.
The mark [9] stands for this setting: read-out: IC50, S-Oxazepam Glucuronide.
Setting [10] is: read-out: IC50,u, S-Oxazepam Glucuronide, IC50 corrected with fu,inc.
[11] abbreviates: rUGT2B7 microsomes, 100 µM cannabinoid.
Where [12] appears, read: pH 7.4, IC50, S-Oxazepam Glucuronide.
[13] abbreviates: pH 7.4, IC50,u, S-Oxazepam Glucuronide, IC50 corrected with fu,inc.
The mark [14] stands for this setting: pH 7.4, IC50, R-Oxazepam Glucuronide.
Setting [15] is: pH 7.4, IC50,u, R-Oxazepam Glucuronide, IC50 corrected with fu,inc.

Consider `CCCCCc1cc(O)c2c(c1)OC(C)(C)[C@@H]1CCC(C)=C[C@@H]21` [THC, Δ^9-tetrahydrocannabinol], for which the results for the IC50 in data set [1] (setting [8]), in data set [1] (setting [9]) and in data set [1] (setting [10]) were 94 ± 26 µM, greater than 100 µM and greater than 4.8 µM, respectively. Further, in data set [2] (setting [11]), the “Inhibition of R-oxazepam glucuronidation” value is on record as 50%.
As to `C=C(C)[C@@H]1CCC(C)=C[C@H]1c1c(O)cc(CCCCC)cc1O` [CBD, cannabidiol], the IC50 at 2 h in data set [3] (setting [12]) was found to be 16 ± 7.7 µM; in data set [3] (setting [13]), 0.98 ± 0.48 µM; in data set [4] (setting [14]) it was 5.9 ± 1 µM; in data set [4] (setting [15]), 0.36 ± 0.062 µM; in data set [6] (setting [12]), 87 ± 46 µM; in data set [6] (setting [13]), 4.5 ± 2.4 µM. Moreover, the results for the IC50 at 2 h in data set [7] (setting [14]) and in data set [7] (setting [15]) were 16 ± 7.7 µM and 0.84 ± 0.39 µM, respectively. The “Increase in N-desmethylclobazam concentration” value in data set [5] (coadministration of clobazam, stiripentol, and CBD 750 mg twice daily) is 3.4 fold. The “Increase in the level of 1-hydroxymidazolam” value in data set [5] (oral CBD 750 mg twice daily with midazolam) was 12%. For the same molecule, the inhibition at 2 h, 100 µM was 95% in data set [2] (100 µM cannabinoid, read-out: Inhibition of R-oxazepam glucuronidation) and 89% in data set [2] (100 µM cannabinoid, read-out: Inhibition of S-oxazepam glucuronidation).
In the case of “11-hydroxy-Δ^9-tetrahydrocannabinol [11-OH-THC]”, the IC50 turned out to be 18 ± 4.3 µM in data set [1] (setting [8]); 19 ± 2 µM in data set [1] (setting [9]); 1.7 ± 0.4 µM in data set [1] (read-out: IC50,u, R-Oxazepam Glucuronide, IC50 corrected with fu,inc); 1.8 ± 0.19 µM in data set [1] (setting [10]); 0.77 ± 0.64 µM in data set [2] (IC50 corrected with fu,inc, read-out: IC50,u, R-Oxazepam Glucuronide); 0.53 ± 0.26 µM in data set [2] (IC50 corrected with fu,inc, read-out: IC50,u, S-Oxazepam Glucuronide). For the same molecule, the 50% inhibitory concentration (IC50) is 9.9 ± 8.2 µM in data set [2] (setting [8]) and 6.8 ± 3.3 µM in data set [2] (setting [9]). Moreover, in data set [2] (setting [11]), the “Inhibition of R-oxazepam glucuronidation” value came to 80%. Also, the “Inhibition of S-oxazepam glucuronidation” value in data set [2] (setting [11]) is listed as 81%.
